From the kinase profiling compilation of Christmann-Franck et al. (2016)

How the values were obtained:
Test in all cases: radiometric filter-binding kinase assay
EPHB3 (human) = EPHB3 (human) (UniProt P54753)
AURKA (human) = AURKA (human) (UniProt O14965)
MELK (human) = MELK (human) (UniProt Q14680)
PAK6 (human) = PAK6 (human) (UniProt Q9NQU5)
MAP2K2 (human) = MAP2K2 (human) (UniProt P36507)
MAP3K5 (human) = MAP3K5 (human) (UniProt Q99683)
PRKCZ (human) = PRKCZ (human) (UniProt Q05513)
MARK2 (human) = MARK2 (human) (UniProt Q7KZI7)
MAP2K6 (human) = MAP2K6 (human) (UniProt P52564)
[1] = biological target: STK11 CAB39 STRADA (human) (UniProt Q9Y376+Q7RTN6+Q15831); conditions: compound 1.0 µM
HIPK3 (human) = HIPK3 (human) (UniProt Q9H422)
MAPKAPK2 (human) = MAPKAPK2 (human) (UniProt P49137)
MST4 (human) = MST4 (human) (UniProt Q9P289)
PAK4 (human) = PAK4 (human) (UniProt O96013); conditions: compound 10.0 µM
MAPK9 (human) = MAPK9 (human) (UniProt P45984)
GSK3B (human) = GSK3B (human) (UniProt P49841)
EEF2K (human) = EEF2K (human) (UniProt O00418)
PKN2 (human) = PKN2 (human) (UniProt Q16513)
PRKCA (human) = PRKCA (human) (UniProt P17252)
MAPK12 (human) = MAPK12 (human) (UniProt P53778)
DYRK2 (human) = DYRK2 (human) (UniProt Q92630)
NTRK1 (human) = NTRK1 (human) (UniProt P04629)
MAP3K9 (human) = MAP3K9 (human) (UniProt P80192)
PIM1 (human) = PIM1 (human) (UniProt P11309)
MAP3K7 TAB1 (human) = MAP3K7 TAB1 (human) (UniProt Q15750+O43318)
BRSK1 (human) = BRSK1 (human) (UniProt Q8TDC3)
MARK4 (human) = MARK4 (human) (UniProt Q96L34)
MAP3K11 (human) = MAP3K11 (human) (UniProt Q16584)
EPHA2 (human) = EPHA2 (human) (UniProt P29317)
MARK1 (human) = MARK1 (human) (UniProt Q9P0L2)
IRAK4 (human) = IRAK4 (human) (UniProt Q9NWZ3)
NUAK1 (human) = NUAK1 (human) (UniProt O60285)
ERBB4 (human) = ERBB4 (human) (UniProt Q15303); conditions: compound 10.0 µM
[2] = test system: AKT1 (human), P31749 [S473D]

Chain of IRAK4 (human) (Q9NWZ3 whole entry, looked up): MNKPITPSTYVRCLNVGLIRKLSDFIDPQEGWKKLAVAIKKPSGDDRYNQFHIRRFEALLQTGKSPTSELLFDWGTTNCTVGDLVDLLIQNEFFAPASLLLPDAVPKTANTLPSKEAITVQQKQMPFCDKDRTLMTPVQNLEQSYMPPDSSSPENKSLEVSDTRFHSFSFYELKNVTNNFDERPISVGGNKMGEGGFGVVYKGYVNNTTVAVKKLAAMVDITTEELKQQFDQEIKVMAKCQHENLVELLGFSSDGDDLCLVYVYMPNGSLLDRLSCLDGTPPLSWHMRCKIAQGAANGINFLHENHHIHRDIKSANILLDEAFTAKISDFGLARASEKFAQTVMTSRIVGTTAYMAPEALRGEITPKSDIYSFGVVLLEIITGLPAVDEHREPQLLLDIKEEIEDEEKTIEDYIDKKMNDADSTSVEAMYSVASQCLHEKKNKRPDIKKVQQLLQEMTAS
Chain of MAP3K11 (human) (Q16584 whole entry, looked up): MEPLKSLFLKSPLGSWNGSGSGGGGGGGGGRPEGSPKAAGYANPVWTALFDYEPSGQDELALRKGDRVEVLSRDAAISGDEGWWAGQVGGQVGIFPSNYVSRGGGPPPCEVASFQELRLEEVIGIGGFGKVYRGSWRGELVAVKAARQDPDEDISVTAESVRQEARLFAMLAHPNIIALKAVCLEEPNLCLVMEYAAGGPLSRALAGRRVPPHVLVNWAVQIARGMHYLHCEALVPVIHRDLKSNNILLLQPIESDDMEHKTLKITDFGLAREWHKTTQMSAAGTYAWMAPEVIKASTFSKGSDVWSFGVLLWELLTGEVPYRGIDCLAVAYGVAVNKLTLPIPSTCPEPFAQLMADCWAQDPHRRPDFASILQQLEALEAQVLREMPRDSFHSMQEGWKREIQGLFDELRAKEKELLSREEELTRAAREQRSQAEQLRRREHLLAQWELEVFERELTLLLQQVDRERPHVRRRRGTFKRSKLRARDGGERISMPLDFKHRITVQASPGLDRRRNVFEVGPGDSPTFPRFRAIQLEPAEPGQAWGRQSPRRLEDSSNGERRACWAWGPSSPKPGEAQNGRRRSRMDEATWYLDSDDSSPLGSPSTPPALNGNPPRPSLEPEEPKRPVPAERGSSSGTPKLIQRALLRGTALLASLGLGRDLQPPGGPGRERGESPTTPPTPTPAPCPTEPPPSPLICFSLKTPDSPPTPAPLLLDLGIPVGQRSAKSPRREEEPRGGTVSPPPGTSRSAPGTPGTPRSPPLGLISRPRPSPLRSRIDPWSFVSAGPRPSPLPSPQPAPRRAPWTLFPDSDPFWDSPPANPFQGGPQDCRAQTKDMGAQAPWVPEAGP
Chain of MARK4 (human) (Q96L34 whole entry, looked up): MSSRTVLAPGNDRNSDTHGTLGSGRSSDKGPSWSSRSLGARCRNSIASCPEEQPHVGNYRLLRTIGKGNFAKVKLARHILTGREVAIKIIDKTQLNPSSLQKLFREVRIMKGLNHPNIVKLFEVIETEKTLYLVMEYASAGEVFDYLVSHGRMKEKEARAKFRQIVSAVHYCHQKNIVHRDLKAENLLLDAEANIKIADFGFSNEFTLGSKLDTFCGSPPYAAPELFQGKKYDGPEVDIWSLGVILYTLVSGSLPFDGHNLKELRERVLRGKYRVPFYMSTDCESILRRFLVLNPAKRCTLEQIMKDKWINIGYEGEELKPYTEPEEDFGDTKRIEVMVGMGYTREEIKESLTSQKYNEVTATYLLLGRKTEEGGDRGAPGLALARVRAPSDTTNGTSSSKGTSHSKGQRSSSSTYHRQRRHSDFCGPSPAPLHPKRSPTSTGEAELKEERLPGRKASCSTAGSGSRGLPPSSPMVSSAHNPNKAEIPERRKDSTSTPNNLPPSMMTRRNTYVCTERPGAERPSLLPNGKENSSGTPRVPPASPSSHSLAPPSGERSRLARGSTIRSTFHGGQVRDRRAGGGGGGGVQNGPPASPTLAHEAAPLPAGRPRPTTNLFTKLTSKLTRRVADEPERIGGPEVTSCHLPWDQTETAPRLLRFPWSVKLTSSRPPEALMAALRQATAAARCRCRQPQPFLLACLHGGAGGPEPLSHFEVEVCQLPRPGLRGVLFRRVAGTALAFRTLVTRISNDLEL
Chain of MAP3K7 TAB1 (human) (O43318 whole entry, looked up): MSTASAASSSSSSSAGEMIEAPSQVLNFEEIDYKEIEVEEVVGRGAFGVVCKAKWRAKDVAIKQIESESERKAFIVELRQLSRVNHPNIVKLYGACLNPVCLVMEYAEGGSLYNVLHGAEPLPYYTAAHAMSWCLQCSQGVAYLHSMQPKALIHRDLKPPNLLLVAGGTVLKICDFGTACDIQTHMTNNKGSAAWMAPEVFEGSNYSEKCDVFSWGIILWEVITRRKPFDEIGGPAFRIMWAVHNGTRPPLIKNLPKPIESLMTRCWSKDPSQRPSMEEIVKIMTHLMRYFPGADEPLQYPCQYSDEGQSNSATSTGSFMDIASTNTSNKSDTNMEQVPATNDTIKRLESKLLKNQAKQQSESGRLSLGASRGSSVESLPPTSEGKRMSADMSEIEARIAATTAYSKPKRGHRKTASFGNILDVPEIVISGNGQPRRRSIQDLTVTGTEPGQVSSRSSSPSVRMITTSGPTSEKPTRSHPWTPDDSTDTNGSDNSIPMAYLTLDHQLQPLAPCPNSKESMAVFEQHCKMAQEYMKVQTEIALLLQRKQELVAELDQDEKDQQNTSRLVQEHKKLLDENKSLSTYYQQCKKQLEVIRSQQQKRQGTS
Chain of MAP3K7 TAB1 (human) (Q15750 whole entry, looked up): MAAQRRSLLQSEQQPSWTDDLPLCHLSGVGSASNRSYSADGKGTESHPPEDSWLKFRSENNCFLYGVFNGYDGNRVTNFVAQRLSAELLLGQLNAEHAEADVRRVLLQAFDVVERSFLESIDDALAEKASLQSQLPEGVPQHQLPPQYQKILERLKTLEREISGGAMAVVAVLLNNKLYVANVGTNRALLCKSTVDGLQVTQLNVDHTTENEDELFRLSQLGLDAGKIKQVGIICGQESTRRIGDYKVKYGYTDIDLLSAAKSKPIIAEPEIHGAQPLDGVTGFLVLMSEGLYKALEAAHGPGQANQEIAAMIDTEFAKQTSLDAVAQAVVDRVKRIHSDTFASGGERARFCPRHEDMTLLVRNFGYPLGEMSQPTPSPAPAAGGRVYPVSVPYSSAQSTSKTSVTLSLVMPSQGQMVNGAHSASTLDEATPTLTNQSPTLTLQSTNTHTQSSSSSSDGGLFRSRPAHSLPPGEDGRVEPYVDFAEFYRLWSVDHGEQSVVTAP
Chain of MELK (human) (Q14680 whole entry, looked up): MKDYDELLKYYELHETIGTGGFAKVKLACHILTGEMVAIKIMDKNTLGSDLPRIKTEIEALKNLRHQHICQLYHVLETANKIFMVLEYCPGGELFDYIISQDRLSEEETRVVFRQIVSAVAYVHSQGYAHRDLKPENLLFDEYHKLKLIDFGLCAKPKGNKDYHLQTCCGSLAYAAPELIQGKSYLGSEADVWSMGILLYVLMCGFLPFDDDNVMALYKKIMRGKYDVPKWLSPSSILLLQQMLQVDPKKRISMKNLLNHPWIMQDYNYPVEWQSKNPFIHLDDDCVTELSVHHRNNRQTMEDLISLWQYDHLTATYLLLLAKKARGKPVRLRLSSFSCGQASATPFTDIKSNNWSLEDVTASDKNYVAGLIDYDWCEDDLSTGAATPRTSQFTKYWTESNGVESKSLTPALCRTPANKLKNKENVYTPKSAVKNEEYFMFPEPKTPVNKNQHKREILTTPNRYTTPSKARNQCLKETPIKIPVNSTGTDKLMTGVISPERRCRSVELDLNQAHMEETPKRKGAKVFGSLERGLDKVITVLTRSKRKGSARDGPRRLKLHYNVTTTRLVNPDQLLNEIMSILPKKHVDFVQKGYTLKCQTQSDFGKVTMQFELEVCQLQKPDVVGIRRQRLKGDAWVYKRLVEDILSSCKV
Chain of PAK6 (human) (Q9NQU5 whole entry, looked up): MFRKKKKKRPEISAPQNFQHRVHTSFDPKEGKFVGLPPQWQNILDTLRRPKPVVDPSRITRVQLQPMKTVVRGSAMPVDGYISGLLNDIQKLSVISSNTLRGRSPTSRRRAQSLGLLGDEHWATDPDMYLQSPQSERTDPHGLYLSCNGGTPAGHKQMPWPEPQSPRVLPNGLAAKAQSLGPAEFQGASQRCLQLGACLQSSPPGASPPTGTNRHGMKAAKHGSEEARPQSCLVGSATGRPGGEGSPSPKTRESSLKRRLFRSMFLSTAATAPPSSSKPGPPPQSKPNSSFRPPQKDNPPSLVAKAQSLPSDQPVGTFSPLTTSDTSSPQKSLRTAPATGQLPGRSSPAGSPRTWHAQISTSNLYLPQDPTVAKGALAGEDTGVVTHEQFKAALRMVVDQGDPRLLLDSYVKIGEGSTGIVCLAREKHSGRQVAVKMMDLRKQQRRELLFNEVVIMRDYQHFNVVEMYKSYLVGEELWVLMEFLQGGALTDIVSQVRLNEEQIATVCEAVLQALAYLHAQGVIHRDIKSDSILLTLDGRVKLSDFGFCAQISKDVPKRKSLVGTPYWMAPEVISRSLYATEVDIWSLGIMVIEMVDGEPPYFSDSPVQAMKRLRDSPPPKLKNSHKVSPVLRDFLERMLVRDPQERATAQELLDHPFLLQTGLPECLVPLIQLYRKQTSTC
Chain of MAPKAPK2 (human) (P49137 whole entry, looked up): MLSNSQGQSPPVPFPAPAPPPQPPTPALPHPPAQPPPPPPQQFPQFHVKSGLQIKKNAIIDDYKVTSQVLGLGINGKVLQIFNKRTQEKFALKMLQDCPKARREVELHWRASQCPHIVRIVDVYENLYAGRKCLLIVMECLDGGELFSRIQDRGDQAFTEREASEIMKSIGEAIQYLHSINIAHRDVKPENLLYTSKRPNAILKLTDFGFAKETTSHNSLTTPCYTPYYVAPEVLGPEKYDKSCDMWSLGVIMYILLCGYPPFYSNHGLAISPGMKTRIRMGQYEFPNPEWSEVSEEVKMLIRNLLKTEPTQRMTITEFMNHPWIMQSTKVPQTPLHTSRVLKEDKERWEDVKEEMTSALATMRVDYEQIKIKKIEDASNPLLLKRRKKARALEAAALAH

In the case of `O=C(NOC[C@H](O)CO)c1ccc(F)c(F)c1Nc1ccc(I)cc1Cl`, the residual activity (EPHB3 (human); compound 1.0 µM) is reported as 101%, the residual activity (EPHB3 (human); compound 10.0 µM) is reported as 113% and the residual activity (AURKA (human); compound 1.0 µM) is reported as 112%. For the same molecule, the residual activity (AURKA (human); compound 10.0 µM) was 108%, the residual activity (MELK (human); compound 1.0 µM) was 81% and the residual activity (MELK (human); compound 10.0 µM) was 97%. The residual activity (PAK6 (human); compound 1.0 µM) was 95%, the residual activity (PAK6 (human); compound 10.0 µM) was 105% and the residual activity (MAP2K2 (human); compound 1.0 µM) was 54%. For the same molecule, the residual activity (MAP2K2 (human); compound 10.0 µM) was 16%, the residual activity (MAP3K5 (human); compound 1.0 µM) was 108% and the residual activity (MAP3K5 (human); compound 10.0 µM) was 116%. For the same molecule, the residual activity (PRKCZ (human); compound 1.0 µM) was 97%, the residual activity (PRKCZ (human); compound 10.0 µM) was 104% and the residual activity (MARK2 (human); compound 1.0 µM) was 104%. For the same molecule, the residual activity (MARK2 (human); compound 10.0 µM) was 103%, the residual activity (MAP2K6 (human); compound 1.0 µM) was 93% and the residual activity (MAP2K6 (human); compound 10.0 µM) was 102%. For the same molecule, the residual activity [1] was 113%, the residual activity (HIPK3 (human); compound 1.0 µM) was 101% and the residual activity (HIPK3 (human); compound 10.0 µM) was 107%. The residual activity (MAPKAPK2 (human); compound 1.0 µM) was 103%, the residual activity (MAPKAPK2 (human); compound 10.0 µM) was 102% and the residual activity (MST4 (human); compound 1.0 µM) was 103%. The residual activity (MST4 (human); compound 10.0 µM) was 104%, the residual activity (PAK4 (human)) was 65% and the residual activity (MAPK9 (human); compound 1.0 µM) was 90%. It also gave a residual activity (MAPK9 (human); compound 10.0 µM) of 105%, a residual activity (GSK3B (human); compound 1.0 µM) of 70% and a residual activity (GSK3B (human); compound 10.0 µM) of 88%. For the same molecule, the residual activity (EEF2K (human); compound 1.0 µM) was 83%, the residual activity (EEF2K (human); compound 10.0 µM) was 93% and the residual activity (PKN2 (human); compound 1.0 µM) was 82%. The residual activity (PKN2 (human); compound 10.0 µM) was 83%, the residual activity (PRKCA (human); compound 1.0 µM) was 100% and the residual activity (PRKCA (human); compound 10.0 µM) was 108%. For the same molecule, the residual activity (MAPK12 (human); compound 1.0 µM) was 91%, the residual activity (MAPK12 (human); compound 10.0 µM) was 98% and the residual activity (DYRK2 (human); compound 1.0 µM) was 99%. The residual activity (DYRK2 (human); compound 10.0 µM) was 107%, the residual activity (NTRK1 (human); compound 1.0 µM) was 72% and the residual activity (NTRK1 (human); compound 10.0 µM) was 75%. The residual activity (MAP3K9 (human); compound 1.0 µM) was 95%, the residual activity (MAP3K9 (human); compound 10.0 µM) was 108% and the residual activity (PIM1 (human); compound 1.0 µM) was 92%. For the same molecule, the residual activity (PIM1 (human); compound 10.0 µM) was 73%, the residual activity (MAP3K7 TAB1 (human); compound 1.0 µM) was 77% and the residual activity (MAP3K7 TAB1 (human); compound 10.0 µM) was 82%. The residual activity (BRSK1 (human); compound 1.0 µM) was 97%, the residual activity (BRSK1 (human); compound 10.0 µM) was 112% and the residual activity (MARK4 (human); compound 1.0 µM) was 112%. For the same molecule, the residual activity (MARK4 (human); compound 10.0 µM) was 127%, the residual activity (MAP3K11 (human); compound 1.0 µM) was 83% and the residual activity (MAP3K11 (human); compound 10.0 µM) was 92%. It also gave a residual activity (EPHA2 (human); compound 1.0 µM) of 86%, a residual activity (EPHA2 (human); compound 10.0 µM) of 94% and a residual activity (MARK1 (human); compound 1.0 µM) of 85%. For the same molecule, the residual activity (MARK1 (human); compound 10.0 µM) was 85%, the residual activity (IRAK4 (human); compound 1.0 µM) was 81% and the residual activity (IRAK4 (human); compound 10.0 µM) was 100%. The residual activity (NUAK1 (human); compound 1.0 µM) was 89%, the residual activity (NUAK1 (human); compound 10.0 µM) was 107% and the residual activity (ERBB4 (human)) was 87%. For the same molecule, the residual activity ([2]; compound 1.0 µM) was 107% and the residual activity ([2]; compound 10.0 µM) was 104%.
